Test results reported in ChEMBL document CHEMBL3244189, “Synthesis and antitumor properties of 7-deoxy-7-[(cis- and trans-3-aminocyclohexane)thio]carminomycinone” (1979).
Active and inactive are the calls of the source. The calls are words filed in the database; no cut-off is given here.

Columns and labels:
Type in all cases: functional
[1] = tested on: Enterobacteria phage lambda; assay: Induction of lambda phage production in Escherichia coli W1709 (lambda) assessed as plaque formation up to 50 ug/ml preincubated for 30 mins followed by heart infusion broth and glucose addition measured after 120 mins
[2] = tested on: Bacillus spizizenii; assay: Antibacterial activity against Bacillus subtilis ATCC 6633 at 50 ug/ml by plate assay; details: read-out: IZ
[3] = tested on: L1210; assay: Antitumor activity against mouse L1210 cells allografted in mouse assessed as tumor growth inhibition at 0.25 to 32 mg/kg, ip relative to control; details: dose mg/kg 0.25-32; route intraperitoneal
[4] = tested on: L1210; assay: Antitumor activity against mouse L1210 cells allografted in mouse assessed as tumor growth inhibition at 0.64 mg/kg, ip relative to control; details: route intraperitoneal
[5] = tested on: Enterobacteria phage lambda; assay: Induction of lambda phage production in Escherichia coli W1709 (lambda) assessed as plaque formation at 3.1 ug/ml preincubated for 30 mins followed by heart infusion broth and glucose addition measured after 120 mins relative to control
[6] = tested on: Bacillus spizizenii; assay: Antibacterial activity against Bacillus subtilis ATCC 6633 at 3.1 ug/ml by plate assay; details: read-out: IZ

| Compound | Activity [1] | zone of inhibition at 50 µg/mL [2] [mm] | T/C [3] | T/C [4] | T/C [5] | zone of inhibition at 3.1 µg/mL [6] [mm] |
| --- | --- | --- | --- | --- | --- | --- |
| CC(=O)[C@]1(O)Cc2c(O)c3c(c(O)c2[C@@H](S[C@@H]2CCC[C@@H](N)C2)C1)C(=O)c1c(O)cccc1C3=O | inactive | 10.5 |  |  |  |  |
| CC(=O)[C@]1(O)Cc2c(O)c3c(c(O)c2[C@@H](S[C@H]2CCC[C@@H](N)C2)C1)C(=O)c1c(O)cccc1C3=O | inactive | 10.3 | <125 |  |  |  |
| CC(=O)[C@]1(O)Cc2c(O)c3c(c(O)c2[C@@H](O[C@H]2C[C@H](N)[C@H](O)[C@H](C)O2)C1)C(=O)c1c(O)cccc1C3=O [CARUBICIN] |  |  |  | 157 | 6.2 | 19 |
